Data taken from patent US12516026B2, “Cabozantinib compositions and methods of use” (priority 2023, dated 2026).

How the values were obtained:
[1] = single dose, healthy human subjects, cited from earlier work
[2] = Example 25: impurity profile of cabozantinib lauryl sulfate lots stored at 40° C. and 75% relative humidity; assay type: physicochemical; conditions: 40° C./75% RH

| Related Substance 1 Int2-Imp1 ([2]; 0 months) [%] | Related Substance 1 Int3-Imp5 ([2]; 0 months) [%] | Related Substance 1 Total imp. ([2]; 0 months) [%] | Related Substance 1 Unidentified imp ([2]; 0 months) [%] | Related Substance 2 Int1 ([2]; 0 months) [ppm] | Water Content ([2]; 0 months) [%] | Related Substance 1 Int2-Imp1 ([2]; 1 month) [%] | Related Substance 1 Int3-Imp5 ([2]; 1 month) [%] | Related Substance 1 Total imp. ([2]; 1 month) [%] | Related Substance 2 Int1 ([2]; 1 month) [ppm] | Related Substance 1 Int2-Imp1 ([2]; 3 months) [%] | Related Substance 1 Int3-Imp5 ([2]; 3 months) [%] | Related Substance 1 Total imp. ([2]; 3 months) [%] | Related Substance 2 Int1 ([2]; 3 months) [ppm] | Water Content ([2]; 3 months) [%] | Compound | further results |
| --- | --- | --- | --- | --- | --- | --- | --- | --- | --- | --- | --- | --- | --- | --- | --- | --- |
| – | – | – | – | – | – | – | – | – | – | – | – | – | – | – | ^14C-cabozantinib | radioactivity recovered in feces ([1]; 48-day collection period): approximately 54%; radioactivity recovered in urine ([1]; 48-day collection period): ~27%; total administered radioactivity recovered ([1]; within a 48-day collection period): approximately 81% |
| 0.10 | 0.05 | 0.24 | <0.05 | 5.22 | 0.31 | 0.11 | <0.05 | 0.24 | 5.98 | 0.13 | <0.05 | 0.29 | 6.99 | 0.05 | CCCCCCCCCCCCOS(=O)(=O)O.COc1cc2nccc(Oc3ccc(NC(=O)C4(C(=O)Nc5ccc(F)cc5)CC4)cc3)c2cc1OC [Example 25C, cabozantinib lauryl sulfate] | Related Substance 1 Int3-Imp7 ([2]; 0 months): <0.05%; Related Substance 1 Int3-Imp7 ([2]; 1 month): 0.05%; Related Substance 1 Unidentified imp ([2]; 1 month): <0.05%; Water Content ([2]; 1 month): 0.29%; Related Substance 1 Int2-Imp1 ([2]; 2 months): 0.13%; Related Substance 1 Int3-Imp5 ([2]; 2 months): <0.05%; Related Substance 1 Int3-Imp7 ([2]; 2 months): <0.05%; Related Substance 1 Total imp. ([2]; 2 months): 0.21%; Related Substance 2 Int1 ([2]; 2 months): 6.07 ppm; Water Content ([2]; 2 months): 0.068%; Related Substance 1 Int3-Imp7 ([2]; 3 months): <0.05%; Related Substance 1 Unidentified imp ([2]; 3 months): <0.05% |
| 0.12 | <0.05 | 0.20 | 0.06 | 2.77 | 0.19 | 0.07 | <0.05 | 0.09 | 6.28 | 0.06 | <0.05 | 0.11 | 6.50 | 0.10 | CCCCCCCCCCCCOS(=O)(=O)O.COc1cc2nccc(Oc3ccc(NC(=O)C4(C(=O)Nc5ccc(F)cc5)CC4)cc3)c2cc1OC [Example 25B, cabozantinib lauryl sulfate] | Related Substance 1 Int3-Imp2 ([2]; 3 months): <0.05%; Related Substance 1 Int2-Imp1 ([2]; 6 months): 0.10%; Related Substance 1 Int3-Imp5 ([2]; 6 months): <0.05%; Related Substance 1 Int3-Imp7 ([2]; 6 months): <0.05%; Related Substance 1 Total imp. ([2]; 6 months): 0.10%; Related Substance 1 Unidentified imp ([2]; 6 months): <0.05%; Related Substance 2 Int1 ([2]; 6 months): 7.34 ppm |
